Experimental findings from patent publication US20130158112A1, “COMPOSITIONS AND METHODS FOR INHIBITING BETA AMYLOID SECRETION” (priority 2011, published 2013) are described below.

In general, melting point refers to the temperature of the solid-liquid transition.

The subject of series [1] is THLE-3 human hepatoma cells. In words: Drug activity persistence after incubation with THLE-3 hepatoma cells. It counts as in vitro ADME. The conditions noted are these: for inhibition at 10 µM: Homo sapiens, THLE3, 24 h; for % remaining Activity: after 24 h incubation with hepatoma cells. Here is the method: (§1) H4βAPP695 wt cells, a human […] cell line stably transfected with a wtβAPP695 expression vector construct under the control of a CMV promoter (kindly provided by Dr. Chris Eckman from Mayo Clinic, Florida) were cultured as previously described. Twenty-four hours before drug treatment, the media was replaced with serum-free media. Cells were then incubated with drugs (dissolved in DMSO) or vehicle for 24 h for collection of conditioned media and cell lysates. For the PKC inhibitors experiment, three inhibitors were treated 30 min prior to drug challenge. Primary cortical neurons were prepared from embryonic day 18 APP and presenilin 1 (APPswe, PSEN1dE9) transgenic mice on the C57BL/6 genetic background (Jackson Laboratories, strain no. 5864) as previously described. THLE-3 human hepatoma cells (from ATCC) were plated in 24-well plates that were precoated with 10 μg/mL bovine serum albumin, 10 μg/mL fibronectin, and 30 μg/mL bovine type I collagen. The cells were grown in BEGM media (Clonetics) until confluent and treated with drugs at 20 μM for 24 h. This conditioned media was harvested, diluted 1:1 in serum-free medium, and incubated with H4βAPP695 wt cells for 24 h prior to analysis of secreted Aβ, which was compared to the effect of 10 μM drug treatments without prior incubation with the THLE-3 cells. Caco-2 cells (ATCC) were plated in 12-well plates with Transwell inserts (Costar) at 70000 cells per well and grown for 21 days. The media volume of the apical and basal chambers was 0.5 and 1.5 mL, respectively. Transepithelial resistance was measured in each well and found to be >160 Ω/cm^2. Drugs at 40 μM and 20 μg/mL of lucifer yellow were added in serum-free medium to the apical chamber. Four hours later, the basal chamber media was harvested and used to measure lucifer yellow fluorescence to confirm monolayer integrity as well as for treatment of H4βAPP695 wt cells for 24 h prior to analysis of secreted Aβ, which was compared to the effect of direct addition of 10 μM of the corresponding drug.
To screen for resistance to metabolism, 1 and eight noncytotoxic analogues with >50% Aβ reducing activity (compounds 27, 29, 48, 52, 53, 65, 73, and 76) were incubated at 20 μM for 24 h with or without THLE-3 human hepatoma cells.

Series [2] relates to Caco-2 cells. Briefly: Epithelial transcellular transport of drug activity through Caco-2 monolayers. It counts as in vitro ADME. The note with it: for % theoretical activity: % of activity passing through Caco-2 monolayer; for inhibition at 10 µM / inhibition at up to 10 µM: Homo sapiens; for inhibition at 10 µM: Caco-2, 10 μM drug alone added directly to H4βAPP695 wt cells, read-out: transcellular transport No total Aβ (% decrease); for inhibition at up to 10 µM: Caco-2, 4 h, lower chamber media after 4 h on Caco-2 monolayer, 10 μM if in equilibrium, read-out: transcellular transport Yes total Aβ (% decrease). The procedure:
as §1
Monolayer integrity was confirmed by high levels of transcellular electrical resistance (>160 ohms/cm^2) and by transcellular impermeability to the fluorescent dye lucifer yellow. […] The concentration of each compound added to the upper chamber would lead to 10 μM in the lower chamber if equilibration was complete, and thus the activity of the lower chamber media was compared to the activity of 10 μM drug added directly to the H4βAPP695 wt cells. […] Compound 1 crossed the monolayer and the bottom chamber media led to a 27% reduction in Aβ production, yielding 38% of the theoretical activity. The compound with the most activity in the lower chamber was compound 48, which decreased Aβ production by 50%, with 71% of its theoretical activity. […] On the basis of the combined activity data from these last two studies, compound 48 was selected as the lead drug for in vivo study.
On the technique in general: Caco-2 monolayers are a common model of the intestinal barrier.

Series [3] has as its system H4βAPP695 wt cells. In words: Cytotoxicity by total cell protein content (BCA) of H4βAPP695 wt cells. The note with it: cytotoxicity.
Procedure: (§2) Cells were washed with cold phosphate buffered saline (PBS) and lysed on ice by vigorous mixing over 15 min with RIPA buffer containing 50 mM Tris-HCl (pH 8.0), 150 mM sodium chloride, 1% NP-40, 0.5% sodium deoxycholate, and 0.1% SDS, supplemented with 10% protease inhibitor cocktail and 2 mM PMSF. After centrifugation at 14000 g for 30 min to remove nuclei and other debris at 4° C., the protein content of the supernatants was measured using the BCA assay kit (Pierce).
(§3) The initial screen was performed in 96-well plates with drugs distributed by the hanging drop method yielding estimated drug levels of 10-25 μM. Total Aβ levels in the 24 h conditioned media were measured by a sandwich ELISA assay, and cytotoxicity was assessed by methylene blue staining of the cells in the wells, as previously described.
The test system of series [4] is Aβ secretion. In words: Secreted total Aβ ELISA in conditioned media of H4βAPP695 wt cells. Format: cell-based, human. The conditions noted are these: for inhibition at 10 µM / inhibition at 30 µM: Homo sapiens, 24 h, H4βAPP695 wt cells; for inhibition at 10 µM: read-out: Total Aβ (% decrease) 10 μM Mean; for inhibition at 30 µM: read-out: Total Aβ (% decrease) 30 μM Mean; for Aβ secretion inhibiting activity (structure activity summary): in words. Put shortly: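 H4 […] cells stably expressing wild-type βAPP695 (CMV promoter), serum-starved 24 h, then exposed to drug in DMSO or vehicle for 24 h before Aβ in conditioned media was measured. Primary cortical neurons came from E18 APPswe/PSEN1dE9 mice on C57BL/6 background.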
A general note: ELISA stands for enzyme-linked immunosorbent assay.

The test system of series [5] is H4βAPP695 wt cells. The conditions noted are these: human, 24 h.
Procedure: as §2, §3
In series [6] the test system is Aβ secretion. Briefly: PKC inhibitors experiment on Aβ secretion. Format: cell-based, human. The conditions noted are these: for effect on basal Aβ secretion: PKC inhibitor alone; for effect of PKC inhibitor on compound 1 inhibited Aβ secretion: inhibitor given 30 min prior to compound 1. The procedure:
as §1
The tumor promoter phorbal myristate acetate is an activator of protein kinase C (PKC) that has been reported to activate α-secretase activity. Thus, we wanted to determine if protein kinase C inhibitors could block the effect of compound 1 on Aβ secretion.

The mark [7] stands for this setting: 10 μM on H4 cells, without preincubation with hepatoma cells, read-out: hepatoma incubation No total Aβ (% decrease).
Where [8] appears, read: 20 μM preincubated 24 h with THLE-3 hepatoma cells, diluted to 10 μM on H4 cells, read-out: hepatoma incubation Yes total Aβ (% decrease).

Where two headings read alike, the source gives them in different places. A value given as a limit tells only on which side of the number the result lay.

For the compound `O=C(NCCSCc1ccccc1)c1c(Cl)cccc1Cl` [Compound 65, N-(2-Benzylsulfanyl-ethyl)-2,6-dichloro-benzamide], the melting point lay in the range of 96 to 97 °C. In addition, the inhibition at 10 µM in series [1] (setting [7]) is 51.6%. The inhibition at 10 µM in series [1] (setting [8]) stood at 27%. Also, in series [1], the “% remaining Activity” value was 52%. In series [2], the “% theoretical activity” value came out at 60.1%, the inhibition at 10 µM was determined as 51.6% and the inhibition at up to 10 µM amounted to 31%. Also, in series [3], the “Cell protein (% decrease) 10 μM Mean” value is −1.1% and the “Cell protein (% decrease) 30 μM Mean” value was −0.7%. In addition, in series [4], the inhibition at 10 µM is more than 50%, the inhibition at 30 µM was found to be 58.6% and the “Aβ secretion inhibiting activity (structure activity summary)” value (from here on “Aβ secretion inhibiting activity”) is recorded as “retained activity”.
With `O=C(NCCSCc1cccc(Cl)c1)c1c([N+](=O)[O-])cccc1[N+](=O)[O-]` [Compound 56, N-[2-(3-Chloro-benzylsulfanyl)-ethyl]-2,6-dinitro-benzamide], the melting point is 139 to 140 °C. Also, in series [5], the “Cell protein (% decrease) 10 μM Mean” value was 0.1% and the “Cell protein (% decrease) 30 μM Mean” value turned out to be 17.8%. Moreover, in series [4], the inhibition at 10 µM amounted to 28.8%, the inhibition at 30 µM is 52.9% and the “Aβ secretion inhibiting activity” value is recorded as “not well tolerated”.
Turning to `CN(C)CCCn1cc(C2=C(c3c[nH]c4ccccc34)C(=O)NC2=O)c2ccccc21` [Bisindolylmaleimide I], in series [6], the “effect on basal Aβ secretion” value is recorded as “no effect” and the “effect of PKC inhibitor on compound 1 inhibited Aβ secretion” value (“effect of PKC inhibitor” for short) was “no effect”.
For `O=C(NCCSCc1cccc(I)c1)c1c(Cl)cccc1Cl` [Compound 53, 2,6-Dichloro-N-[2-(3-iodo-benzylsulfanyl)-ethyl]-benzamide], the melting point is 75 to 78 °C. In addition, the “hepatoma incubation Yes total Aβ (% decrease)” value in series [1] (20 μM preincubated 24 h with THLE-3 hepatoma cells, diluted to 10 μM on H4 cells) was determined as 40.0%. For the same compound, in series [1] (setting [7]), the inhibition at 10 µM was 84.4%. The inhibition at 10 µM in series [1] (setting [8]) came out at 40%. Besides, the “% remaining Activity” value in series [1] was 47%. Moreover, in series [2], the “% theoretical activity” value is on record as 1.3%, the inhibition at 10 µM was 84.4% and the inhibition at up to 10 µM amounted to 1%. For the same compound, in series [3], the “Cell protein (% decrease) 10 μM Mean” value came out at 9.2% and the “Cell protein (% decrease) 30 μM Mean” value is on record as 19%. In series [4], the inhibition at 30 µM was 88.3% and the “Aβ secretion inhibiting activity” value is listed as “good activity”.
As for Calphostin C, in series [6], the “effect on basal Aβ secretion” value is “no effect” and the “effect of PKC inhibitor” value is “no effect”.
In the case of `O=C(NCCSCc1ccccc1Cl)c1c(Cl)cccc1Cl` [Compound 76, 2,6-Dichloro-N-[2-(2-chloro-benzylsulfanyl)-ethyl]-benzamide], the melting point was in the range of 110 to 112 °C. The inhibition at 10 µM in series [1] (setting [7]) stood at 75.6%. For the same compound, the inhibition at 10 µM in series [1] (setting [8]) came to 49%. Moreover, the “% remaining Activity” value in series [1] is on record as 65%. In addition, in series [2], the “% theoretical activity” value was determined as 41.8%, the inhibition at 10 µM was 75.6% and the inhibition at up to 10 µM was 32%. Also, in series [3], the “Cell protein (% decrease) 10 μM Mean” value is listed as −0.5% and the “Cell protein (% decrease) 30 μM Mean” value is given as −11%. In series [4], the inhibition at 30 µM came to 80% and the “Aβ secretion inhibiting activity” value was “retained activity”.
`CC(=O)c1c(O)c(C)c(O)c(Cc2c(O)c3c(c(C(=O)/C=C/c4ccccc4)c2O)OC(C)(C)C=C3)c1O` [Rottlerin]: in series [6], the “effect on basal Aβ secretion” value is on record as “reduced Aβ secretion” and the “effect of PKC inhibitor” value is “did not significantly alter the effect of compound 1”.
As for `COc1cccc(CSCCNC(=O)c2c([N+](=O)[O-])cccc2[N+](=O)[O-])c1` [Compound 37, N-[2-(3-Methoxy-benzylsulfanyl)-ethyl]-2,6-dinitro-benzamide], the melting point was 69 to 71 °C. Also, in series [5], the “Cell protein (% decrease) 10 μM Mean” value was determined as 3.7% and the “Cell protein (% decrease) 30 μM Mean” value is −3.8%. Moreover, in series [4], the inhibition at 10 µM was -14.1%, the inhibition at 30 µM was -2.8% and the “Aβ secretion inhibiting activity” value is recorded as “not well tolerated”.
Regarding `COc1cccc(CSCCNC(=O)c2c(Cl)cccc2Cl)c1` [Compound 27, 2,6-dichloro-N-[2-(3-methoxy-benzylsulfanyl)-ethyl]-benzamide], the inhibition at 10 µM in series [1] (setting [7]) amounted to 60.6%. Further, the inhibition at 10 µM in series [1] (setting [8]) came to 22.2%. Besides, the “% remaining Activity” value in series [1] stood at 37%. Besides, in series [2], the “% theoretical activity” value was found to be 29.5%, the inhibition at 10 µM amounted to 60.6% and the inhibition at up to 10 µM was 17.9%. For the same compound, in series [3], the “Cell protein (% decrease) 10 μM Mean” value stood at 8.4% and the “Cell protein (% decrease) 30 μM Mean” value stood at 13.2%. Also, in series [4], the inhibition at 10 µM was more than 50%, the inhibition at 30 µM is 73.9% and the “Aβ secretion inhibiting activity” value was “good activity”.
Consider `COc1cc(Cl)cc(CSCCNC(=O)c2c(Cl)cccc2Cl)c1` [Compound 73, 2,6-Dichloro-N-[2-(3-chloro-5-methoxy-benzylsulfanyl)-ethyl]-benzamide], for which the melting point was in the range of 83 to 84 °C. Moreover, the inhibition at 10 µM in series [1] (setting [7]) stood at 67.7%. The inhibition at 10 µM in series [1] (setting [8]) was 33.5%. Further, the “% remaining Activity” value in series [1] is reported as 49%. In series [2], the “% theoretical activity” value came out at 4.0%, the inhibition at 10 µM was 67.7% and the inhibition at up to 10 µM came to 2.7%. In addition, in series [3], the “Cell protein (% decrease) 10 μM Mean” value came out at 0.9% and the “Cell protein (% decrease) 30 μM Mean” value was 0.4%. For the same compound, in series [4], the inhibition at 10 µM was more than 50%, the inhibition at 30 µM was 81% and the “Aβ secretion inhibiting activity” value is on record as “could be tolerated”.
The compound `COc1cccc(CSCCNC(=O)c2c(Cl)cccc2Cl)c1OC` [Compound 52, 2,6-Dichloro-N-[2-(2,3-dimethoxy-benzylsulfanyl)-ethyl]-benzamide] yielded a melting point of 108 to 110 °C. Besides, the inhibition at 10 µM in series [1] (setting [7]) was 57.8%. Moreover, in series [1] (setting [8]), the inhibition at 10 µM worked out at 1.9%. Besides, in series [2], the “% theoretical activity” value was 45.9%, the inhibition at 10 µM was found to be 57.8% and the inhibition at up to 10 µM was 26.5%. In addition, in series [3], the “Cell protein (% decrease) 10 μM Mean” value is −0.1% and the “Cell protein (% decrease) 30 μM Mean” value is reported as 8.7%. In series [4], the inhibition at 10 µM is more than 50%, the inhibition at 30 µM came out at 72.8% and the “Aβ secretion inhibiting activity” value is “could be tolerated”.
